Experimental data as given in patent US20110009374A1, “METHOD OF WOUND HEALING AND SCAR MODULATION” (priority 2009, published 2011).
Values joined by “and” are separate entries in the source; they are usually repeats but may differ in a detail not shown here. Equal entries are not always repeated.

Assays:
Format in all cases: in vivo
[1] = system: linear subcutaneous-deep incision wounds in hairless mice (Skh:HR-1); assay: Example 2 scar evaluation by Vancouver Scale at day 21 and gross evaluation; parameters: key: Vancouver Scale subscores (18-point total), mean of two observers
Description: (§1) Twelve hairless mice (Skh:HR-1) with an average weight of […] were treated topically with a local anesthetic (LMX-4, Ferndale Laboratories, Inc.) for 30 minutes prior to wounding for dermal anesthesia. Antiseptics were not used because of the possibility of their local effect on the wound healing process.
(§2) The mice were subdivided into two groups, A and B. Each mouse received three linear, 10 mm long, subcutaneous-deep incision wounds parallel to the spinal column. The first incision was near the spinal column on the left side (C), one at a position 10 mm away from the first on the same side (L), and one on the right side about 10 mm from the center line or spinal column (R). All incision wounds were made with a 0.3 mm blade surgical blade. Because of the loose nature of the hairless mouse epidermis the wounds spread to as wide as 3 mm. Each mouse was housed separately.
(§3) 1) 0.25% Formulations: water (79.75%), ethanol (18%), methylprednisolone acetate or prednisolone acetate (0.25%), and ammonium acryloyldimethyltaurate/VP copolymer (2%).
(§4) 2) 1% Formulations: water (79%), ethanol (18%), methylpredinisolone acetate or prednisolone acetate (1%), and ammonium acryloyldimethyltaurate/VP copolymer (2%).
(§5) In Group A, wounds C and L were treated with the 0.25% and 1% methylprednisolone acetate formulations, respectively, and wound R was the control or untreated wound. In Group B, wounds C and L were treated with the 0.25% and 1% prednisolone acetate formulations, respectively and wound R was the control. The study drug (methylprednisolone or prednisolone) was applied to the treatment wounds twice daily (8 hours apart) beginning 1 h after the incision on day 1 and continuing through day 21. The wounds were far enough apart to avoid the spread of the treatment gel from the treated wound to the control wound. No additional physical barrier, such as a gauze bandage, was used.
(§6) Each mouse was kept in its cage during days 14-21. On day 21, each scar was assessed according to the Vancouver Scale (18 points) under magnification by two observers independently and the scores were averaged and recorded. Progressive re-epithelializaton of the wound surface from the wound edges continued until the wound surface was completely closed at a time between days 14 and 21.

[2] = system: linear subcutaneous-deep incision wounds in hairless mice (Skh:HR-1); assay: Example 2 wound healing in hairless mice: healing evaluation by wound width
Description: as §1, §2, §3, §4, §5
Healing evaluation was made by measuring wound closure, which was assessed by the width of the wound. The width of each scar was measured with digital calipers at the widest point while subject was lying motionless, on its ventral side. Digital photographs were taken to record the healing process. The mean width of wound was recorded on days 1, 3, 5, 7, 9, 11, 13, 15, 17, 19 and 21.

[3] = system: linear subcutaneous-deep wounds in hairless mice (Skh:HR-1); assay: Example 1 scar evaluation by Vancouver Scale at day 21; conditions: 1% formulation
Description: as §1, with “for dermal anesthesia for” for “for”, “wounding.” for “wounding for dermal anesthesia.”
(§7) Two linear subcutaneous-deep wounds were made bilaterally with a 0.3 mm blade surgical knife on the dorsal side of each subject approximately 10 mm on each side of the spinal column. Because of the loose nature of the hairless mouse epidermis the wounds spread to as wide as 3 mm. Each mouse was housed separately.
(§8) The test formulation comprised the following ingredients (by weight percent): water (79%), ethanol (18%), prednisolone acetate (1%), and ammonium acryloyldimethyltaurate/VP copolymer (2%).
(§9) In each test subject, the right wound was assigned to a control (i.e., no treatment) and the left would was treated with a the 1% prednisolone acetate test formulation, applied twice daily (8 hours apart) beginning 1 h after the incision on day 1 and continuing through day 21. The wounds were about 20 mm apart to prevent the treatment gel from migrating from the treatment wound to the control wound.
as §6, with “re-epithelialization” for “re-epithelializaton”

[4] = system: linear subcutaneous-deep wounds in hairless mice (Skh:HR-1); assay: Example 1 wound healing in hairless mice: healing evaluation by wound width; conditions: for Scar Width at widest margin: individual subject, 1% formulation topically twice daily; for Scar Width at widest margin / Scar Width at widest margin, Mean: L wound; for Scar Width at widest margin, Mean: mean of 12 subjects, 1% formulation twice daily
Description: as §1, with “for dermal anesthesia for” for “for”, “wounding.” for “wounding for dermal anesthesia.”
as §7, §8, §9
Healing evaluation was made by measuring wound closure, which was assessed by the width of the wound. Evaluation was made on days 1, 3, 5, 10, and 14. The width of each scar was measured with digital calipers at the widest point while subject was lying motionless on its ventral side. Digital photographs were taken to record healing process.

[5] = Day 1, wound C, 0.25% formulation twice daily
[6] = Day 1, wound L, 1% formulation twice daily
[7] = Day 3, wound C, 0.25% formulation twice daily
[8] = Day 3, wound L, 1% formulation twice daily
[9] = Day 5, wound C, 0.25% formulation twice daily
[10] = Day 5, wound L, 1% formulation twice daily
[11] = Day 7, wound C, 0.25% formulation twice daily
[12] = Day 7, wound L, 1% formulation twice daily
[13] = Day 9, wound C, 0.25% formulation twice daily
[14] = Day 9, wound L, 1% formulation twice daily
[15] = Day 11, wound C, 0.25% formulation twice daily
[16] = Day 11, wound L, 1% formulation twice daily
[17] = Day 13, wound C, 0.25% formulation twice daily
[18] = Day 13, wound L, 1% formulation twice daily
[19] = Day 15, wound C, 0.25% formulation twice daily
[20] = Day 15, wound L, 1% formulation twice daily
[21] = Day 17, wound C, 0.25% formulation twice daily
[22] = Day 17, wound L, 1% formulation twice daily
[23] = Day 19, wound C, 0.25% formulation twice daily
[24] = Day 19, wound L, 1% formulation twice daily
[25] = Day 21, wound C, 0.25% formulation twice daily
[26] = Day 21, wound L, 1% formulation twice daily
[27] = Day 21, individual subject, L wound
[28] = Day 21, mean of 12 subjects, L wound

## CC(=O)OCC(=O)[C@@]1(O)CC[C@H]2[C@@H]3C[C@H](C)C4=CC(=O)C=C[C@]4(C)[C@H]3[C@@H](O)C[C@@]21C [methylprednisolone acetate]
[1]; wound C, 0.25% formulation
  Mean Vancouver Scale Scar Scoring, Height: 0
  Mean Vancouver Scale Scar Scoring, Pigmentation: 1
  Mean Vancouver Scale Scar Scoring, Pliability: 2.0
  Mean Vancouver Scale Scar Scoring, Vascularity: 0
[1]; wound L, 1% formulation
  Mean Vancouver Scale Scar Scoring, Height: 0
  Mean Vancouver Scale Scar Scoring, Pigmentation: 1
  Mean Vancouver Scale Scar Scoring, Pliability: 1.5
  Mean Vancouver Scale Scar Scoring, Vascularity: 0
[2]; [5]
  Mean Wound Width at Widest Margin: 3.1 ± 0.3 mm
[2]; [6]
  Mean Wound Width at Widest Margin: 3.0 ± 0.2 mm
[2]; [7]
  Mean Wound Width at Widest Margin: 2.5 ± 0.2 mm
[2]; [8]
  Mean Wound Width at Widest Margin: 2.4 ± 0.3 mm
[2]; [9]
  Mean Wound Width at Widest Margin: 2.0 ± 0.3 mm
[2]; [10]
  Mean Wound Width at Widest Margin: 1.9 ± 0.4 mm
[2]; [11]
  Mean Wound Width at Widest Margin: 1.5 ± 0.2 mm
[2]; [12]
  Mean Wound Width at Widest Margin: 1.4 ± 0.2 mm
[2]; [13]
  Mean Wound Width at Widest Margin: 1.0 ± 0.3 mm
[2]; [14]
  Mean Wound Width at Widest Margin: 0.9 ± 0.3 mm
[2]; [15]
  Mean Wound Width at Widest Margin: 0.5 ± 0.2 mm
[2]; [16]
  Mean Wound Width at Widest Margin: 0.5 ± 0.1 mm
[2]; [17]
  Mean Wound Width at Widest Margin: 0.1 ± 0.3 mm
[2]; [18]
  Mean Wound Width at Widest Margin: 0.1 ± 0.2 mm
[2]; [19]
  Mean Wound Width at Widest Margin: 0 mm
[2]; [20]
  Mean Wound Width at Widest Margin: 0 mm
[2]; [21]
  Mean Wound Width at Widest Margin: 0 mm
[2]; [22]
  Mean Wound Width at Widest Margin: 0 mm
[2]; [23]
  Mean Wound Width at Widest Margin: 0 mm
[2]; [24]
  Mean Wound Width at Widest Margin: 0 mm
[2]; [25]
  Mean Wound Width at Widest Margin: 0 mm
[2]; [26]
  Mean Wound Width at Widest Margin: 0 mm

## CC(=O)OCC(=O)[C@@]1(O)CC[C@H]2[C@@H]3CCC4=CC(=O)C=C[C@]4(C)[C@H]3[C@@H](O)C[C@@]21C [prednisolone acetate]
[1]; wound C, 0.25% formulation
  Mean Vancouver Scale Scar Scoring, Height: 0
  Mean Vancouver Scale Scar Scoring, Pigmentation: 1
  Mean Vancouver Scale Scar Scoring, Pliability: 2.5
  Mean Vancouver Scale Scar Scoring, Vascularity: 0
[1]; wound L, 1% formulation
  Mean Vancouver Scale Scar Scoring, Height: 0
  Mean Vancouver Scale Scar Scoring, Pigmentation: 1
  Mean Vancouver Scale Scar Scoring, Pliability: 1.0
  Mean Vancouver Scale Scar Scoring, Vascularity: 0
[2]; [5]
  Mean Wound Width at Widest Margin: 3.1 ± 0.3 mm
[2]; [6]
  Mean Wound Width at Widest Margin: 3.0 ± 0.2 mm
[2]; [7]
  Mean Wound Width at Widest Margin: 2.5 ± 0.2 mm
[2]; [8]
  Mean Wound Width at Widest Margin: 2.4 ± 0.3 mm
[2]; [9]
  Mean Wound Width at Widest Margin: 1.7 ± 0.2 mm
[2]; [10]
  Mean Wound Width at Widest Margin: 1.8 ± 0.4 mm
[2]; [11]
  Mean Wound Width at Widest Margin: 1.4 ± 0.2 mm
[2]; [12]
  Mean Wound Width at Widest Margin: 1.5 ± 0.2 mm
[2]; [13]
  Mean Wound Width at Widest Margin: 1.1 ± 0.2 mm
[2]; [14]
  Mean Wound Width at Widest Margin: 1.0 ± 0.2 mm
[2]; [15]
  Mean Wound Width at Widest Margin: 0.6 ± 0.2 mm
[2]; [16]
  Mean Wound Width at Widest Margin: 0.6 ± 0.2 mm
[2]; [17]
  Mean Wound Width at Widest Margin: 0.1 ± 0.2 mm
[2]; [18]
  Mean Wound Width at Widest Margin: 0.2 ± 0.3 mm
[2]; [19]
  Mean Wound Width at Widest Margin: 0 mm
[2]; [20]
  Mean Wound Width at Widest Margin: 0 mm
[2]; [21]
  Mean Wound Width at Widest Margin: 0 mm
[2]; [22]
  Mean Wound Width at Widest Margin: 0 mm
[2]; [23]
  Mean Wound Width at Widest Margin: 0 mm
[2]; [24]
  Mean Wound Width at Widest Margin: 0 mm
[2]; [25]
  Mean Wound Width at Widest Margin: 0 mm
[2]; [26]
  Mean Wound Width at Widest Margin: 0 mm
[3]; [27]
  Averaged Vancouver Scale Scar Scoring, Height: 0
  Averaged Vancouver Scale Scar Scoring, Pigmentation: 1.5 and 1 (11×)
  Averaged Vancouver Scale Scar Scoring, Pliability: 1 (10×) and 1.5 (2×)
  Averaged Vancouver Scale Scar Scoring, Vascularity: 1 (2×) and 0 (10×)
[3]; [28]
  Averaged Vancouver Scale Scar Scoring, Height, Mean: 0
  Averaged Vancouver Scale Scar Scoring, Pigmentation, Mean: 1.1
  Averaged Vancouver Scale Scar Scoring, Pliability, Mean: 1.1
  Averaged Vancouver Scale Scar Scoring, Vascularity, Mean: 0.16
[3]; day 21
  global assessment of scars by Vancouver Scale, treated vs control: significant difference in pliability, pigmentation and vascularity
  pigmentation vs control: marginally better
  vascularity in treated areas: returned to virtually normal
[4]; 1% formulation
  redness and marginal line of treated wounds vs control: less redness and a finer marginal line
[4]; 1% formulation, number of scars out of 12
  scars healed with some degree of contracture: 8 out of the 12
[4]; 1% formulation, treated and control wounds
  signs of infection: Neither the control nor the treated wounds showed signs of infection
[4]; Day 1
  Scar Width at widest margin: 3.0 mm (2×) and 2.6 mm and 2.9 mm (4×) and 2.7 mm (3×) and 2.8 mm (2×)
  Scar Width at widest margin, Mean: 2.8 mm
[4]; Day 3
  Scar Width at widest margin: 1.9 mm (3×) and 1.8 mm (4×) and 1.4 mm and 1.5 mm and 1.7 mm (3×)
  Scar Width at widest margin, Mean: 1.8 mm
[4]; Day 5
  Scar Width at widest margin: 1.7 mm (3×) and 1.6 mm (3×) and 1.1 mm and 1.3 mm and 1.4 mm (3×) and 1.5 mm
  Scar Width at widest margin, Mean: 1.5 mm
[4]; Day 10
  Scar Width at widest margin: 0.6 mm (4×) and 0.2 mm and 0.4 mm (2×) and 0.5 mm (3×) and 0.3 mm and 0.7 mm
  Scar Width at widest margin, Mean: 0.5 mm
[4]; Day 14
  Scar Width at widest margin: 0.2 mm (2×) and 0.0 mm (10×)
  Scar Width at widest margin, Mean: 0 mm and 0.0 mm
[4]; day 3, 1% formulation
  mean difference in wound width, treated vs control: 0.4 mm
[4]; day 5, 1% formulation
  mean difference in wound width, treated vs control: 0.4 mm
[4]; day 7, 1% formulation
  mean difference in wound width, treated vs control: 0.5 mm
[4]; day 10, 1% formulation
  mean difference in wound width, treated vs control: 0.5 mm
[4]; day 14, 1% formulation
  mean difference in wound width, treated vs control: 0.7 mm
[4]; evaluation and healing period, 1% formulation
  retarding of healing phases: No apparent retarding of any phase of healing
[4]; evident by day 5, 1% formulation
  contracture of healed epidermal layer vs control: less contracture
[4]; first 14 days, 1% formulation
  gross appearance of treated wounds (crusting, infiltrates, exudates): clear of crusting, infiltrates, and exudates
[4]; over a 14-day period, 1% formulation
  healing vs control group by wound width: faster than the control group
